Data on 20 molecules can be found in US8569336B2, “Compounds for the treatment of inflammatory disorders” (priority 2008, dated 2013).

In test [1] the test system is TNF-α production from human whole blood. The experiment in a line: Inhibition of TNF-α production from human whole blood (hWBA), LPS stimulated, ELISA. Type of test: cell-based. Conditions: Homo sapiens, TNF-α by ELISA, read-out: hWBA (IC50). In general terms: An ELISA detects its analyte on a solid surface through an enzyme-linked reagent.
Test [2] has as its target T1, purified catalytic domain of recombinant human TACE (rhTACEc) (Homo sapiens, UniProt P78536, N452Q/S266A).
T1 construct: 6xHis (C); made in house; host or cells: baculovirus/Hi5 insect cells
Description: TACE kinetic assay: cleavage of internally quenched peptide substrate TNF-FRET 2 (Ki). Type of test: biochemical. Conditions: TNF-FRET 2 substrate.

The mark [3] stands for this setting: human whole blood diluted 1:1, LPS stimulated.
[4] abbreviates: LPS-stimulated human whole blood.
The mark [5] stands for this setting: 3.5 h, human whole blood diluted 1:1, LPS stimulated, 3.5 h.

Where two headings read alike, the source gives them in different places.

T1 sequence (P78536 215-477 S266A/N452Q): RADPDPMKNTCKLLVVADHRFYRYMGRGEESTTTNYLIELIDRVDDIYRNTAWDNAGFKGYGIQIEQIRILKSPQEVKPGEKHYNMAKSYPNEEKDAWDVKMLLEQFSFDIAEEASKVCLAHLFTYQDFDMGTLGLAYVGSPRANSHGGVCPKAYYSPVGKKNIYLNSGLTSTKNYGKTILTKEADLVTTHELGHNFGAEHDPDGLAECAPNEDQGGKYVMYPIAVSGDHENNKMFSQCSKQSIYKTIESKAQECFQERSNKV

Turning to `O=C1NC(=O)[C@](CN2CCc3ccsc3C2=O)(c2cc3ncccc3o2)N1` [Compound 2494], the IC50 – broadly, the concentration that gives 50% inhibition – in test [1] (setting [3]) stood at 2250 nM. In addition, in test [2] (read-out: Ki), the Ki (usually the dissociation constant of the complex between target and ligand, obtained from inhibition or displacement) stood at 1.25 nM.
As to `COc1ccc2c(c1)C(=O)N(C[C@@]1(c3cc4nc(Nc5cncc(F)c5)ccc4o3)NC(=O)NC1=O)C2` [Compound 1731], in test [1] (setting [4]), the IC50 worked out at 4140 nM. In test [2] (read-out: Ki), the Ki stood at 1.32 nM.
As for `COc1ccc2c(c1)C(=O)N(C[C@@]1(c3cc4nc(-c5cnc(N(C)C)nc5)ccc4o3)NC(=O)NC1=O)C2` [Compound 2152], the IC50 in test [1] (setting [5]) was 675 nM. Moreover, in test [2] (read-out: Ki), the inhibitory constant (Ki) was found to be 0.374 nM.
The corresponding values for `COc1ccc2c(c1)C(=O)N(C[C@@]1(c3cc4cc(-c5ccc(N(C)C)nc5)ccc4o3)NC(=O)NC1=O)C2` [Compound 1184] are 2710 nM and 0.85 nM.
As to `COc1ccc2c(c1F)C(=O)N(C[C@@]1(c3cc4nc(N5CCN(C)CC5)c(F)cc4o3)NC(=O)NC1=O)C2` [Compound 1710], the IC50 in test [1] (setting [4]) stood at 218 nM. Also, in test [2] (read-out: Ki), the Ki amounted to 1.08 nM.
The corresponding values for `O=C1NC(=O)[C@](CN2Cc3ccc(O)c(I)c3C2=O)(c2cc3ncccc3o2)N1` [Compound 1736] are above 10000 nM and 53.5 nM.
As for `COc1ccc2c(c1)C(=O)N(C[C@@]1(c3cc4cc(C)ncc4o3)NC(=O)NC1=O)C2` [Compound 2302], the IC50 in test [1] (setting [3]) stood at 470 nM. The Ki in test [2] (read-out: Ki) came to 0.437 nM.
For the molecule `COc1ccc2c(c1)C(=O)N(C[C@@]1(c3cc4nc(Nc5cn[nH]c5)ccc4o3)NC(=O)NC1=O)C2` [Compound 1729], in test [1] (setting [4]), the IC50 worked out at 211 nM. The inhibitory constant (Ki) in test [2] (read-out: Ki) is 0.43 nM.
On the same counts, the results for `COc1ccc2c(c1)C(=O)N(C[C@@]1(c3cc4nc(NS(C)(=O)=O)ccc4o3)NC(=O)NC1=O)C2` [Compound 1937] are 189 nM and 2.17 nM.
With `COc1ccc2c(c1)C(=O)N(C[C@@]1(c3cc4nc(C(=O)NC5CC5)ccc4o3)NC(=O)NC1=O)C2` [Compound 2464], the IC50 in test [1] (setting [3]) stood at 367 nM. Further, in test [2] (read-out: Ki), the Ki is 0.115 nM.
Turning to `COc1ccc2c(c1)C(=O)N(C[C@@]1(c3cc4nc(-c5cc[nH]n5)ccc4o3)NC(=O)NC1=O)C2` [Compound 2103], the concentration for half-maximal inhibition (IC50) in test [1] (setting [5]) was 375 nM. Further, the Ki in test [2] (read-out: Ki) turned out to be 0.342 nM.
Take `COc1ccc2c(c1F)C(=O)N(C[C@@]1(c3cc4c(C)nc(C)cc4o3)NC(=O)NC1=O)C2` [Compound 202]: the IC50 in test [1] (setting [4]) was 553 nM. In addition, the inhibitory constant (Ki) in test [2] (read-out: Ki) worked out at 0.568 nM.
As to `Cn1cc(-c2ccc3c(c2)C(=O)N(C[C@@]2(c4cc5ncccc5o4)NC(=O)NC2=O)C3)cn1` [Compound 1742], in test [1] (setting [4]), the IC50 was 3720 nM. Moreover, in test [2] (read-out: Ki), the Ki stood at 3.63 nM.
Regarding `COc1ccc2c(c1)C(=O)N(C[C@@]1(c3cc4ccc(C(=O)N5CCNC(=O)C5)cc4o3)NC(=O)NC1=O)C2` [Compound 2422], in test [1] (setting [3]), the IC50 is 519 nM. Also, the Ki in test [2] (Ki) amounted to 0.68 nM.
Consider `COc1ccc2c(c1)C(=O)N(C[C@@]1(c3cc4cc(-c5cncc(O)c5)ncc4o3)NC(=O)NC1=O)C2` [Compound 2244], for which the IC50 in test [1] (setting [5]) turned out to be 365 nM. For the same molecule, the Ki in test [2] (read-out: Ki) stood at 0.35 nM.
On to `COc1ccc2c(c1)C(=O)N(C[C@@]1(c3cc4cc(-c5cc(O)nn5C)cnc4o3)NC(=O)NC1=O)C2` [Compound 2276], for which the IC50 in test [1] (setting [5]) amounted to 222 nM. Besides, in test [2] (read-out: Ki), the inhibition constant Ki came to 0.562 nM.
On to `COc1ccc2c(c1)C(=O)N(C[C@@]1(c3cc4cnc(N5CCCC5=O)cc4o3)NC(=O)NC1=O)C2` [Compound 2253], for which the half-maximal inhibitory concentration (IC50) in test [1] (setting [5]) stood at 2670 nM. The Ki in test [2] (read-out: Ki) was determined as 0.972 nM.
As for `COc1ccc2c(c1)C(=O)N(C[C@@]1(c3cc4cnc(OC)cc4o3)NC(=O)NC1=O)C2` [Compound 2308], the IC50 in test [1] (setting [3]) was 2110 nM. Further, the inhibitory constant (Ki) in test [2] (read-out: Ki) was 0.328 nM.
Take `COc1ccc2c(c1)C(=O)N(C[C@@]1(c3cc4nc(N(CCO)Cc5ccccn5)ccc4o3)NC(=O)NC1=O)C2` [Compound 1701]: the IC50 in test [1] (setting [4]) came out at 2210 nM. In addition, the Ki in test [2] (read-out: Ki) was determined as 2.49 nM.
Regarding `COc1ccc2c(c1F)C(=O)N(C[C@@]1(c3cc4nc(N5CCOCC5)c(F)cc4o3)NC(=O)NC1=O)C2` [Compound 1913], the IC50 in test [1] (setting [4]) is 657 nM. The Ki in test [2] (Ki) was 0.53 nM.
